Measured values: US7045665B2, “Glucopyranosyloxybenzylbenzene derivatives, medicinal compositions containing the same and intermediates for the preparation of the derivatives” (Kissei Pharmaceutical Co., Ltd., priority 2000, dated 2006)

Experiments:
[1] = system: urinary glucose excretion; assay: Assay for the facilitatory effect on urinary glucose excretion; assay type: in vivo; conditions: SD rats, 1 mg/kg intravenous, oral glucose 2 g/kg; in 24 hours per 200 g of body weight
Method: Assay for the Facilitatory Effect on Urinary Glucose Excretion
As experimental animal, overnight fasted SD rats (SLC., male, 7 weeks of age, 180–240 g) were used. Ten mg of test compound was suspended or dissolved in 300 μL of ethanol and then dissolved by adding of 1.2 mL of polyethylene glycol 400 and 1.5 mL of saline, and then 3.3 mg/mL solution was prepared. Three hundred μL of this solution was dissolved with 2.7 mL of the solution for dilution (saline:polyethylene glycol 400:ethanol=5:4:1) and then 0.33 mg/mL solution was prepared. After the body weights of rats were measured, the solution of test compound was intravenously injected to the tail vein at the dose of 3 mL/kg (1 mg/kg). For control, just only the solution (saline:polyethylene glycol 400:ethanol=5:4:1) was intravenously injected to the tail vein at the dose of 3 mL/kg. Immediately after intravenous injection to the tail vein, 200 g/L of glucose solution was orally administered to the rats at the dose of 10 mL/kg (2 g/kg). The intravenous injection to the tail vein was performed with 26 G injection needle and 1 mL syringe. The oral administration was performed with gastric tube for rat and 2.5 mL syringe. The head count in one group was 2 or 3. Collection of urine was performed in metabolic cage after the oral administration of glucose was finished. The sampling time for collection of urine was 24 hours after the oral administration of glucose. After the collection of urine was finished, the urine volume was recorded and the urinary glucose concentration was measured. The glucose concentration was measured with a kit for laboratory test: Glucose B-Test WAKO (Wako Pure Chemical Industries, Ltd.). The amount of urinary glucose excretion in 24 hours per 200 g of body weight was calculated from urine volume, urinary glucose concentration and body weight.

human SGLT2 = target: T1, human SGLT2 (Homo sapiens, UniProt P31639, I433V); assay: Assay for inhibitory effect on human SGLT2 activity (uptake of methyl-α-D-glucopyranoside); assay type: cell-based; conditions: COS-7 cells transiently expressing human SGLT2; uptake of methyl-α-D-(U-14C)glucopyranoside, 37° C., 2 hours
T1 construct: expressed in transfected cells; host or cells: COS-7 cells (RIKEN CELL BANK RCB0539), transient, electroporation
T1 sequence (P31639 1-672 I433V): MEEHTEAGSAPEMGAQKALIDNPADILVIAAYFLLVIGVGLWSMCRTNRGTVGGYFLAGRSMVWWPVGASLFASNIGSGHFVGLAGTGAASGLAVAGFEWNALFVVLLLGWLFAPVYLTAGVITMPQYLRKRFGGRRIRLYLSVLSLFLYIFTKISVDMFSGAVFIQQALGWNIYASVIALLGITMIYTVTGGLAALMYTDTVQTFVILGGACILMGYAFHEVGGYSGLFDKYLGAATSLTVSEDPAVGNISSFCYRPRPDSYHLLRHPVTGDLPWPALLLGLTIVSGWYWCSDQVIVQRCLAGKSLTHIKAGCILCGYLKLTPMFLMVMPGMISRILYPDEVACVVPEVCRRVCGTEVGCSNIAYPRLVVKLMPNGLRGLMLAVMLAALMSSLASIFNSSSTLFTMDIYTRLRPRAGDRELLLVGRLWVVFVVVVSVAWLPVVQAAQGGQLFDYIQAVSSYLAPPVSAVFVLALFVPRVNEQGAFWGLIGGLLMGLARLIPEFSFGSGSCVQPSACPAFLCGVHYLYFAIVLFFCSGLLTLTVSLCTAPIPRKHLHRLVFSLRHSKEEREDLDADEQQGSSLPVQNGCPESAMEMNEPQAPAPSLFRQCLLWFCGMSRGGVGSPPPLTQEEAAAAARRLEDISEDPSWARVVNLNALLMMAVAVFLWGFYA
Method: Assay for Inhibitory Effect on Human SGLT2 Activity
Preparation of the cDNA library for PCR amplification was performed by reverse transcription of a total RNA deprived from human kidney (Ori gene) with oligo dT as the primer, using […] Preamplification System (Gibco-BRL: LIFE TECHNOLOGIES). […] The amplified DNA fragment was ligated into pCR-Blunt (Invitrogen), a vector for cloning, according to standard method of the kit. […] The amplified DNA fragment was digested with restriction enzymes, Xho I and Hind III, and then purified with Wizard Purification System (Promega).
KL29, the plasmid coding human SGLT2, was transfected into COS-7 cells (RIKEN CELL BANK RCB0539) by electroporation. Electroporation was performed with GENE PULSER II (Bio-Rad Laboratories) under the condition: 0.290 kV, 975 μF, 2×10^6 cells of COS-7 cell and 20 μg of KL29 in 500 μL of OPTI-MEM I medium (Gibco-BRL: LIFE TECHNOLOGIES) in the 0.4 cm type cuvette. After the gene transfer, the cells were harvested by centrifugation and resuspended with OPTI-MEM I medium (1 mL/cuvette). To each well in 96-wells plate, 125 μL of this cell suspension was added.

ICR mice = assay: Acute toxicity test; assay type: in vivo; conditions: male ICR mice, 2000 mg/kg subcutaneous, 5 animals
Method: Five weeks old male ICR mice (CLEA JAPAN, INC. 29–34 g, 5 animals in each group) were fasted for 4 hours, and 666 mg/mL of a suspension which was prepared by adding saline:polyethylene glycol 400:ethanol (5:4:1) to 2-[4-(2-hydroxyethyl)benzyl]phenyl β-D-glucopyranoside (the compound described in Example 10) was subcutaneously administered at the dose of 3 mL/kg (2000 mg/kg).

IC50 (human SGLT2) | Compound | Amount of urinary glucose excretion [1] | Death until 24 hours after the administration (ICR mice)
 | COc1ccc(Cc2ccccc2O[C@@H]2O[C@H](CO)[C@@H](O)[C@H](O)[C@H]2O)cc1 [Example 1, 2-(4-Methoxybenzyl)phenyl β-D-glucopyranoside] | 27.4 mg | 
140 nM | CCCOc1ccc(Cc2ccc(CO)cc2O[C@@H]2O[C@H](CO)[C@@H](O)[C@H](O)[C@H]2O)cc1 [Example 7, 5-Hydroxymethyl-2-(4-propoxybenzyl)phenyl β-D-glucopyranoside] | 109.1 mg | 
8.1 nM | CCc1ccc(Cc2ccc(CO)cc2O[C@@H]2O[C@H](CO)[C@@H](O)[C@H](O)[C@H]2O)cc1 [Example 8, 2-(4-Ethylbenzyl)-5-hydroxymethylphenyl β-D-glucopyranoside] | 238.9 mg | 
27 nM | OCCc1ccc(Cc2ccc(CO)cc2O[C@@H]2O[C@H](CO)[C@@H](O)[C@H](O)[C@H]2O)cc1 [Example 9, 2-[4-(2-Hydroxyethyl)benzyl]-5-hydroxymethylphenyl β-D-glucopyranoside] |  | 
75 nM | OCCCc1ccc(Cc2ccccc2O[C@@H]2O[C@H](CO)[C@@H](O)[C@H](O)[C@H]2O)cc1 [Example 11, 2-[4-(3-Hydroxypropyl)benzyl]phenyl β-D-glucopyranoside] |  | 

Compound | IC50 (human SGLT2) | Amount of urinary glucose excretion [1] | Death until 24 hours after the administration (ICR mice)
OCCc1ccc(Cc2ccccc2O[C@@H]2O[C@H](CO)[C@@H](O)[C@H](O)[C@H]2O)cc1 [Example 10, 2-[4-(2-Hydroxyethyl)benzyl]phenyl β-D-glucopyranoside] | 210 nM | 69.5 mg | No death was observed
